Test results taken from US8097238B2, “Cell targeting conjugates” (Peter MacCallum Cancer Institute, priority 2004, dated 2012).
Where “and” joins values, the source holds several entries; their conditions need not be identical. Equal values may be shown once. Starred links: 1 amine or outer side, 2 acyl side, 3 side chain; linkers in the order of their positions; H or OH if unused. Positions of bridges follow the written chain, without caps; N, C: chain ends. Non-standard residues stand in square brackets, D forms with d. Residues, ends and D or L forms follow the SMILES beside them. Chains are numbered I, II in the order given. Actinocin(9to1) = Cc1c2oc3c(C)ccc(C(=O)[*:1])c3nc-2c(C(=O)[*:2])c(N)c1=O; NMeV = CN[C@H](C(=O)O)C(C)C; Sar = CNCC(=O)O

How the values were obtained:
[1] = tested on: plasmid DNA; experiment: Plasmid DNA breakage, ^124I/^125I double isotope experiments; format: biochemical
Description: In experiments exactly analogous to those described in Example 25, induction of DNA double-strand breaks was investigated for ^124I-iodoHoechst 33258. The results of preliminary experiments (to our knowledge the first such experiments done with DNA-associated ^124I) are shown in FIG. 15 and Table 4.

[2] = tested on: K562 nuclei; experiment: Accumulation of nuclear-associated ^125I-activity in K562 nuclei; format: cell-based, human; details: 200 nM protein, 37° C.
Protocol: After incubation for 5 minutes at 0° C., an equal volume of hypotonic buffer containing 1% (v/v) Triton X-100 was added while vortexing, and the cells were sheared by passage through a 22-gauge needle. The nuclei were separated from the cytosol by centrifugation at 1000×g for 10 minutes and the nuclear preparations were washed in hypotonic buffer and pipetted to avoid clumping. The concentration of nuclei isolated from each sample was determined by counting with a hemocytometer and the nuclear- and cytoplasm-associated ^125I-activity was determined by β-counting. In parallel assays, the nuclei were washed with 10 mM Tris-HCl, 140 mM NaCl, pH 8.3 (isotonic buffer) by centrifugation at 1000×g for 10 minutes and the nuclear associated ^125I-activity and the ^125I-activity in the supernatants was determined by β-counting.

[3] = tested on: K562 cells; experiment: Accumulation of cell-associated ^125I-activity in K562 cells; format: cell-based, human; details: 200 nM protein, 37° C.
Protocol: At the required time intervals (0-20 hours), the cell-associated and extracellular ^125I-ligands were separated by centrifugation at 400×g for 3 minutes and the cell-associated ^125I-activity and the ^125I-activity in the supernatants were counted in a […] (80% counting efficiency; Perkin Elmer Inc.). To elucidate whether the meta-^127I/^125I-iodoHoechst-transferrin conjugates were internalized specifically via transferrin receptor mediated endocytosis, assays were performed in parallel in the presence of 100-fold molar excess of unlabelled diferric transferrin.
In parallel with the experiment described in Example 19, cultures of K562 cells with one of the three labeled DNA ligand—transferring conjugates were incubated at 0° C., a condition that inhibits receptor-mediated endocytosis. Other assays were performed in parallel at 37° C. in the presence of the metabolic inhibitors […] (50 mM) and sodium azide (0.1% (w/v)), which are known to inhibit transferrin receptor mediated endocytosis (Ciechanover, et al. 1983).

[4] = tested on: K562 cells; experiment: Clonogenic survival of K562 cells after ^125I-ligand incubation; format: cell-based, human; details: 20 hours at 37° C., 200 nM protein
Protocol: K562 cells were washed three times in serum-free RPMI 1640 containing 20 mM HEPES and 80 I.U./ml gentamicin. In the representative experiment, cells (5×10^5 per ml) were incubated with a series of radioactive doses of ^125I-diferric transferrin (highest dose 3.8 μCi/ml; specific activity 18.9 Ci/mmole, 200 nM protein concentration) or with a series of radioactive doses of the required meta-^127I/^125I-iodoHoechst-transferrin conjugate (highest doses 17.5, 10.1 and 18.3 μCi/ml, specific activities 87.5, 53.3 and 98 Ci/mmole protein for the disulphide, acylhydrazone and amide linked meta-^127I/^125I-iodoHoechst-transferrin conjugates, respectively, protein concentration 200 nM, conjugation number 2.8, 2.9 and 3.1 for the disulphide, acylhydrazone and amide linked conjugates, respectively) for 20 hours at 37° C. To ensure that cytotoxicity was mediated by decay of ^125I, control assays were performed in parallel with unlabelled meta-^127I-iodoHoechst-transferrin conjugates. Furthermore, to determine whether the ^125I-induced cytotoxicity was mediated by transferrin receptor-mediated endocytosis, control assays were performed in parallel in the presence of a 50-fold molar excess of unlabelled diferric transferrin. Following incubation, the cell-pellets were isolated by centrifugation at 400×g for 3 minutes and suspended in the α-modification of Eagle's medium containing 20% (v/v) fetal bovine serum, 20 mM HEPES, 2 mM L-glutamine and 80 I.U./ml gentamicin. An appropriate cell number from each of the samples was then cloned in semi-solid (0.33% (w/v)) noble agar in 6-well microtiter plates.

[5] = tested on: DNA; details: literature values; cited from earlier work
[6] = tested on: K562 nuclei; experiment: Nuclear fluorescence of K562 cells after photolytic deiodination (quantitative fluorescence microscopy); format: cell-based, human
Protocol: The delivery of ortho-iodoHoechst to K562 nuclei following incubation of cells with the acylhydrazone linked transferrin-ortho-iodoHoechst conjugate was examined by quantitative fluorescence microscopy, after photolytic deiodination. K562 cells in RPMI 1640 containing 3% FBS, 20 mM HEPES and 80 I.U./ml gentamicin were incubated with the acylhydrazone linked conjugate ([…], conjugation number 1.5) for 24 hours at 37° C. Following incubation the cells were irradiated with 200 Jm^−2 UVA to generate in situ the dehalogenated ligand, which is much more fluorescent than the iodinated ligand. The cells were then washed by centrifugation and the cell-pellet was resuspended in 50 μl PBS without Ca^2+/Mg^2+. Aliquots (20 μl) were placed onto microscope slides and were allowed to air-dry. Prior to microscopy a drop of 30% PBS and 100 μM dithiothreitol in Tissuetek was added to the cells. K562 cells were observed using a fluorescence microscope (Zeiss) and a standard Hoechst filter set. Analysis of nuclear fluorescence was performed using a Bio-Rad Molecular Imager® Fx (Bio-Rad Laboratories, Hercules, Calif., USA) and Quantity One™ 4.1.1 software.

[7] = incubation period between 4-20 hours

| Compound | dose required to produce on average one lethal event per cell (D37) [4] [μCi/ml] | rate of increase of nuclear-associated ^125I-activity [2] | rate of increase of cell-associated ^125I-activity ([3]; first 4 hours of incubation) | rate of increase of cell-associated ^125I-activity [3, 7] | further results |
| --- | --- | --- | --- | --- | --- |
| CN1CCN(c2ccc3nc(-c4ccc5nc(-c6ccc(O)c(I)c6)[nH]c5c4)[nH]c3c2)CC1 [^124I-iodoHoechst 33258] | – | – | – | – | efficiency of DNA-associated decays in DNA double-strand break induction ([1]; compared with the ^123I counterpart): at least as efficient as those of the ^123I counterpart; da1(^124I)/da2(^125I) ([1]; preliminary experiments): 0.76 and 0.71 and 0.82 and 0.75; Average da1(^124I)/da2(^125I) ([1]; samples A2, A3, B1, B2): 0.76 ± 0.05 |
| ^125I-transferrin: ^125I-labelled human diferric transferrin, unconjugated comparator [reference compound] | 31.8 | – | – | – | accumulation of ^125I-activity in the nuclei [2]: not observed; rate of increase of cell-associated ^125I-activity ([3]; after first 2 hours until approximately 4-5 hours): approximately 0.8 fmoles ^125I-ligand/cell/minute; rate of increase of cell-associated ^125I-activity ([3]; approximately the first 2 hours of incubation): approximately 5.2 fmoles ^125I-ligand/cell/minute; rate of decrease in cell-associated ^125I-activity ([3]; incubation period between 5-20 hours): approximately 0.2 fmoles ^125I-ligand/cell/minute |
| amide linked meta-^127I/^125I-iodoHoechst-transferrin conjugate: meta-^127I/^125I-iodoHoechst conjugated to transferrin via an amide linkage (Example 16, FIG. 4) | 8.9 | 0.13 fmole ^125I-ligand/cell/minute | ~3.6 fmoles ^125I-ligand/cell/minute | ~2.6 fmoles ^125I-ligand/cell/minute | – |
| acylhydrazone linked meta-^127I/^125I-iodoHoechst-transferrin conjugate: meta-^127I/^125I-iodoHoechst conjugated to thiolated transferrin via an acylhydrazone linkage (Example 15, FIG. 3) | 3.8 | 0.38 fmole ^125I-ligand/cell/minute | ~10.4 fmoles ^125I-ligand/cell/minute | ~5.7 fmoles ^125I-ligand/cell/minute | – |
| COc1cccc2c1C(=O)c1c(O)c3c(c(O)c1C2=O)C[C@@](O)(C(=O)CO)C[C@@H]3O[C@H]1C[C@H](N)[C@H](O)[C@H](C)O1 [doxorubicin] | – | – | – | – | association constant for equilibrium binding to DNA (affinity) [5]: about 10^6 M^−1 |
| Cc1c2oc3c(C)ccc(C(=O)N[C@@H]4C(=O)N[C@H](C(C)C)C(=O)N5CCC[C@H]5C(=O)N(C)CC(=O)N(C)[C@@H](C(C)C)C(=O)O[C@@H]4C)c3nc-2c(C(=O)N[C@@H]2C(=O)N[C@H](C(C)C)C(=O)N3CCC[C@H]3C(=O)N(C)CC(=O)N(C)[C@@H](C(C)C)C(=O)O[C@@H]2C)c(N)c1=O [Actinomycin D] (I: T[dV]P[Sar][NMeV] / II: T[dV]P[Sar][NMeV]; ester I:1-I:C, II:1-II:C; linker I:N-II:N via Actinocin(9to1)) | – | – | – | – | association constant for equilibrium binding to DNA (affinity) [5]: about 10^6 M^−1 |
| disulphide linked meta-^127I/^125I-iodoHoechst-transferrin conjugate: meta-^127I/^125I-iodoHoechst conjugated to thiolated transferrin via a disulphide linkage (Example 14, FIG. 2) | 6.0 | 0.21 fmole ^125I-ligand/cell/minute | approximately 7.2 fmoles ^125I-ligand/cell/minute | approximately 6.1 fmoles ^125I-ligand/cell/minute | – |
| acylhydrazone linked transferrin-ortho-iodoHoechst conjugate: transferrin linked to ortho-iodoHoechst via an acylhydrazone linkage, conjugation number 1.5 | – | – | – | – | nuclear fluorescence in K562 cell nuclei ([6]; conjugation number 1.5, 24 hours at 37° C., then 200 Jm^−2 UVA): significant fluorescence; inhibition of nuclear fluorescence ([6]; in the presence of 100-fold molar excess unmodified transferrin): largely inhibited |
